Reference: patent publication US20240208953A1, “"Cyclopenta[c]pyrrol Negative Allosteric Modulators of NR2B"” (Novartis AG, priority 2021, published 2024)
pIC50: −log10 of the molar value.

How the values were obtained:
P-glycoprotein (P-gp) = P-glycoprotein (P-gp) (Homo sapiens (Human), UniProt P08183); assay: MDCK-MDR1 permeability / efflux assay; type: in vitro ADME; settings: for efflux ratio at 120 min, 10 μM: dog, MDCK-MDR1, pH 7.4, efflux ratio, read-out: MDCK-MDR1 ER
Procedure: Example 4. Experimental Measurement of Efflux with MDCK-MDR1 Protocol
Cell Culture. MDCK-MDR1 cells were cultured at 37° C. under a 5% CO2 atmosphere, at 95% relative humidity in DMEM containing 10% FBS, penicillin-streptomycin (100 μg/mL), and 2 mM Ala-Gln. Cells were passaged every 3-4 days. For assay purposes, cells were seeded at a density of approximately 265,000 cells/cm^2 of a 96-well Transwell plate (Corning Life Sciences, Acton, MA) and cultured in the same media noted above for a period of 4 days.
Assay. The determination of the apparent permeability (Papp) was performed in both the A→B (apical to basal) and B→A (basal to apical) directions where each compound was assayed in triplicate. The zwitterion bestatin, a poorly permeably compound, was used as marker of monolayer integrity. To initiate the assay, media was aspirated, and the cells and basal chambers were washed three times with Hank's Balanced Salt Solution (HBSS) containing 10 mM HEPES (pH 7.4). Compound test solutions were prepared in triplicate in HBSS containing 10 mM HEPES (pH 7.4) and 0.02% bovine serum albumin (BSA) to a final concentration of 10 μM and centrifuged for 2 min at 4000×g, then applied to the donor compartment at time zero. Additionally, at time zero, a 37° C. solution without test articles (HBSS+10 mM HEPES (pH 7.4) plus 0.02% BSA) was added to the receiver chamber of the Transwell plate. A time zero sample of the donor solution was also sampled for further analysis. The assay was conducted for a period of 120 min at 37° C. without shaking. At the time of assay termination, samples were taken from each donor compartment, and each acceptor compartment of the Transwell plate. To each of the 0 and 120 min samples was added an internal standard solution containing glyburide in water:acetonitrile, 50:50 (v:v). Concentration curves were prepared using a Labcyte Echo in the same matrix noted above. Samples and concentration curve samples were centrifuged for 10 min at 4000×g and subsequently analyzed by mass spectroscopy.
Mass Spectroscopy. Assay samples were loaded onto a RapidFire C4 cartridge by means of a RapidFire autosampler (Agilent, Santa Clara, CA). […] Mass spectroscopy was performed using an AB Sciex AP15500 (Sciex, Frammingham, MA) equipped with a turbo ion spray source. The analyte concentration was calculated from the chromatographic peak area ratio of analyte to internal standard (glibenclamide, m/z 494→169), using Multiquant software V3.0 (Sciex, Framingham, MA).
Calculations. Papp values were determined as
Percent recovery values were determined as:
where VA is the volume of the acceptor (mL), S is the surface area of the membrane, D0 is the donor solution concentration at t=0, D120 is the donor solution concentration at t=120, A120 is the acceptor solution concentration at t=120, and t=time (seconds).
The suitability of a compound for oral dosing and/or for use as a CNS therapeutic is usually conducted by MDCK-MDR1 permeability assay to investigate its drug efflux potential mediated by P-glycoprotein (P-gp). MDCK-MDR1 permeability has been used as a predictor of blood brain barrier permeability in terms of efflux ratio (ER).

NR2B = NR2B (Rattus norvegicus (Rat), UniProt Q00960); assay: NR2B rat cortical neuron calcium influx assay; type: cell-based; settings: rat cortical neurons, glutamate and glycine stimulated calcium influx
Sequence of NR2B (Q00960 27-1482, other chains not shown): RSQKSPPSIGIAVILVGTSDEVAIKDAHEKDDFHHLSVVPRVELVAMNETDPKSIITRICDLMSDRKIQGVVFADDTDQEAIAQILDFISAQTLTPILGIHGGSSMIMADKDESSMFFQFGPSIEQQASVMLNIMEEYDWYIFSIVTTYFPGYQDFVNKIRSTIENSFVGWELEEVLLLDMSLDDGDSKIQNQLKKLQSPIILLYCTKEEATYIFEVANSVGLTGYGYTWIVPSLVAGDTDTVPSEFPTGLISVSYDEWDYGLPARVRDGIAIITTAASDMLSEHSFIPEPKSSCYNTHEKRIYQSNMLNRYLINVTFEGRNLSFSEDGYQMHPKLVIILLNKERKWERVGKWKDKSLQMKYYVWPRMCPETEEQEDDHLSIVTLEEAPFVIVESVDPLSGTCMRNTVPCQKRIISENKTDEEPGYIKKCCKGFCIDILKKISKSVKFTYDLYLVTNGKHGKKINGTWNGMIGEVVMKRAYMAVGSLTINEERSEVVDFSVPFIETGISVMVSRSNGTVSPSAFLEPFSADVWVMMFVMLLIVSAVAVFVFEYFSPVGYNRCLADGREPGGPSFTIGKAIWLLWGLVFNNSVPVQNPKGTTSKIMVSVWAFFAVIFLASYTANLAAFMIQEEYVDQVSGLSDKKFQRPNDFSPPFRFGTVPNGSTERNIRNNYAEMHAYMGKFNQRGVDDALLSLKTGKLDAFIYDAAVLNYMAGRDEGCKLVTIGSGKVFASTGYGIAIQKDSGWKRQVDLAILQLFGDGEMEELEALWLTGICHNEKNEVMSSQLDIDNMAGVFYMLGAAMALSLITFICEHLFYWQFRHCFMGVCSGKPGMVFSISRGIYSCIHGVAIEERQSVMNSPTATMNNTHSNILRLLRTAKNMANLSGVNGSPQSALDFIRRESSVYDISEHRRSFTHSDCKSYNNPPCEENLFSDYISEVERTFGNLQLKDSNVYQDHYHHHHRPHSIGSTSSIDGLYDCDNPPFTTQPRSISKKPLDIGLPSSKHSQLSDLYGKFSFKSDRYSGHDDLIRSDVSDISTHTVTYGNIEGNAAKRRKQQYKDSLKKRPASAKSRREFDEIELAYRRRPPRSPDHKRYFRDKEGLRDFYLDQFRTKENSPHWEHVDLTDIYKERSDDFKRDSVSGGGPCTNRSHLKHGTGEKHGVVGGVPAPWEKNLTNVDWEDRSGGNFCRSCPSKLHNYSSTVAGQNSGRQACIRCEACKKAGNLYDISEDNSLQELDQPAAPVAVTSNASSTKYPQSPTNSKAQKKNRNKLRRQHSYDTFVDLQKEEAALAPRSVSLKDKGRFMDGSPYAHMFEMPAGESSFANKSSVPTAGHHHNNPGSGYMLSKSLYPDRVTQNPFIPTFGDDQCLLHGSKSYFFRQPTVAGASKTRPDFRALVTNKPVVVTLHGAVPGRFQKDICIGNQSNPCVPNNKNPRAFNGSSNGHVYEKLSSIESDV
Text: Example 1: NR2B Rat Cortical Neuron Calcium Influx Assay Protocol
Embryonic day 18 timed pregnant Sprague Dawley rats were euthanized according to Institutional Animal Care and Use Committee (IACUC) protocol. After cutting medially through the skin and exposing the uterus and embryos, fetuses were removed and placed in cold Hibernate medium. Each embryo's brain was extracted and cerebral cortices were isolated by removing the midbrain and meninges. The dissected cortices were then dissociated into the neurons using papain dissociation system (Worthington Biochemical Corporation) according the manufacturer's protocol.
Dissociated neurons were counted and plated into 384-well poly-D-lysine coated plates (Corning® BioCoat™) at a density of 20,000 cells/well in 30 μL of Neurobasal/B27 complete medium. Neurons were cultured at 37° C. for 2 days. On the assay day, medium was removed and cells were incubated with 20 μL/well of calcium dye (Calcium 6 Assay Kit, Molecular Devices) suspended in HBSS with 1.8 mM Ca^2+ (Ca-HBSS) according to the manufacturer's instruction.
Compounds of interest from 10 mM stock were serially diluted into 3× of desired concentrations in 1.8 mM Ca-HBSS, and 10 μL were added to the wells. Compound and the neurons were incubated at 37° C. for 2 hours in the dark.
On FDSS7000EX (Hamamatsu Photonics), a fluorescence measuring instrument, 10 μL of 4× ligand solution containing glutamate and glycine made in 1.8 mM Ca^2+-HBSS were added to each well. The fluorescent signals were collected before and after the addition of ligands for a total of 2 minutes. The data were converted to a ratio of the peak fluorescence to the fluorescence at the beginning of the measurement.
Each data point was measured in duplicates. Dose response curves were used to identify IC50 and maximal inhibition values. IC50 represents the concentration in μM of compound at which there is a half-maximal compound effect. Maximal inhibition of a compound is expressed as a percent of the highest inhibition of activity over a no compound control.

Sequence of P-glycoprotein (P-gp) (P08183 whole entry): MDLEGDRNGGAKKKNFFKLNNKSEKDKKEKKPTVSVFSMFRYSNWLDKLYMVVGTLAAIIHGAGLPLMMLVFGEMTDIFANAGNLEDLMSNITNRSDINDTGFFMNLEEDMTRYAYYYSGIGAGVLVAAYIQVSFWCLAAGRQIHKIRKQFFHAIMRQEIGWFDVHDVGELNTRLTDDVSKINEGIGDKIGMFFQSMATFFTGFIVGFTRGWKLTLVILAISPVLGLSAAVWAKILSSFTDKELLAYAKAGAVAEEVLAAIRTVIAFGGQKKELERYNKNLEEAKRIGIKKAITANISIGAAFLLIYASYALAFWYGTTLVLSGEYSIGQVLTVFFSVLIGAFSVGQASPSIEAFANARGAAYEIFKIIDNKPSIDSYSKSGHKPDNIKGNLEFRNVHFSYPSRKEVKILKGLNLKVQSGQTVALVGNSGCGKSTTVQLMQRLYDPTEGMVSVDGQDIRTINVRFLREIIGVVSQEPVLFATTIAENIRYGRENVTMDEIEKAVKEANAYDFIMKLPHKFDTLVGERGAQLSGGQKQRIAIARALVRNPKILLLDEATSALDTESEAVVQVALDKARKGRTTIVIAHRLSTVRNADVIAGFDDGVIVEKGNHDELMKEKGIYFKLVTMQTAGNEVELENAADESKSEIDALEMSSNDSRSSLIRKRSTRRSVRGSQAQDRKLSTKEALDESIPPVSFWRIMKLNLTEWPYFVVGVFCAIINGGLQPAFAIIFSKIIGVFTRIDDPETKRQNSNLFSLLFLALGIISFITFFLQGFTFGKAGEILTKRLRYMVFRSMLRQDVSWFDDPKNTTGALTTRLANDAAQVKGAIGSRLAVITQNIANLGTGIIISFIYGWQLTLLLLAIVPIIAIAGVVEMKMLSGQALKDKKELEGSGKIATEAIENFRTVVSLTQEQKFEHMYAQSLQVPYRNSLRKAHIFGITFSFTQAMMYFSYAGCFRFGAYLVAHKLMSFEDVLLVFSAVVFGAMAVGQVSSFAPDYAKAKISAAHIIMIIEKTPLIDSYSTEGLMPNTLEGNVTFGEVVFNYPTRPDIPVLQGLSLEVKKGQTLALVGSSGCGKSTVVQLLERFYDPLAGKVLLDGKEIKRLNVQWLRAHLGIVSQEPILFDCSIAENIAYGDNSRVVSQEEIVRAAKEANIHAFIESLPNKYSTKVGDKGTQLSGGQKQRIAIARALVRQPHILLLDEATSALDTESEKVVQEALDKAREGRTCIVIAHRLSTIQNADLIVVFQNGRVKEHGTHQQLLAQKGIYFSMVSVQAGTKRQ

Row | Compound | efflux ratio at 120 min, 10 μM (P-glycoprotein (P-gp)) | pIC50 (NR2B) | MDCK-MDR1 ER (P-glycoprotein (P-gp); efflux ratio, 10 μM, 120 min)
1 | O=C1CCCc2cc([C@@H](O)CN3C[C@H]4C[C@H](Oc5ccccc5)C[C@@]4(O)C3)cc(F)c2N1 (single isomer, unassigned) [Example 30A] | 1.18 | 6.55 | 
2 | O=C1Nc2ccc([C@@H](O)CN3C[C@H]4C[C@H](Oc5ccccc5)C[C@@]4(O)C3)c(F)c2CO1 (single isomer, unassigned) [Example 34A] | 3.81 | 8.57 | 
3 | O=C1Nc2c(F)cc([C@@H](O)CN3C[C@H]4C[C@H](Oc5ccccc5)C[C@@]4(O)C3)c(F)c2CO1 (single isomer, unassigned) [Example 37A] | 1.15 | 7.48 | 
4 | O=C1Nc2c(cc([C@@H](O)CN3C[C@H]4C[C@H](Oc5ccccc5)C[C@@]4(O)C3)c(F)c2F)CO1 (single isomer, unassigned) [Example 38A] | 1.58 | 8.29 | 
5 | O[C@@H](CN1C[C@H]2C[C@H](Oc3ccccc3F)[C@H](O)[C@@]2(O)C1)c1cnc2[nH]ccc2c1 (single isomer, unassigned) [Example 44A] | 6.09 | 6.77 | 
6 | O=C1Cc2cc([C@H](O)CN3C[C@H]4C[C@H](Oc5ccccc5)C[C@@]4(O)C3)ccc2N1 [Example 2B, 5-((S)-1-hydroxy-2-((3aS,5S,6aR)-3a-hydroxy-5-phenoxyhexahydrocyclopenta[c]pyrrol-2(1H)-yl)ethyl)indolin-2-one] | 3.54 | 7.20 | 
7 | O=C1Cc2cc([C@@H](O)CN3C[C@@H]4C[C@@H](Oc5ccccc5)[C@@H](O)[C@]4(O)C3)ccc2N1 [Example 3A, 5-((R)-2-((3aR,4R,5R,6aS)-3a,4-dihydroxy-5-phenoxyhexahydrocyclopenta[c]pyrrol-2(1H)-yl)-1-hydroxyethyl)indolin-2-one] | 7.49 | 5.26 | 
8 | O=C1Cc2cc([C@H](O)CN3C[C@@H]4C[C@@H](Oc5ccccc5)[C@@H](O)[C@]4(O)C3)ccc2N1 [Example 3B] |  | < 5.00 | 6.36
9 | O=C1CCc2cc([C@@H](O)CN3C[C@H]4C[C@H](Oc5ccccc5)[C@H](O)[C@@]4(O)C3)ccc2N1 [Example 4A, 6-((R)-2-((3aS,4S,5S,6aR)-3a,4-dihydroxy-5-phenoxyhexahydrocyclopenta[c]pyrrol-2(1H)-yl)-1-hydroxyethyl)-3,4-dihydroquinolin-2(1H)-one] | 6.99 | 7.89 | 
10 | O=C1CCc2cc([C@@H](O)CN3C[C@@H]4C[C@@H](Oc5ccccc5)[C@@H](O)[C@]4(O)C3)ccc2N1 [Example 4C, 6-((R)-2-((3aR,4R,5R,6aS)-3a,4-dihydroxy-5-phenoxyhexahydrocyclopenta[c]pyrrol-2(1H)-yl)-1-hydroxyethyl)-3,4-dihydroquinolin-2(1H)-one] | 6.75 | 5.52 | 
11 | O=C1CCc2cc([C@H](O)CN3C[C@@H]4C[C@@H](Oc5ccccc5)[C@@H](O)[C@]4(O)C3)ccc2N1 [Example 4D, 6-((S)-2-((3aR,4R,5R,6aS)-3a,4-dihydroxy-5-phenoxyhexahydrocyclopenta[c]pyrrol-2(1H)-yl)-1-hydroxyethyl)-3,4-dihydroquinolin-2(1H)-one] | 6.87 | 6.60 | 

Second part, the molecule after the results:

Row | efflux ratio at 120 min, 10 μM (P-glycoprotein (P-gp)) | pIC50 (NR2B) | MDCK-MDR1 ER (P-glycoprotein (P-gp); efflux ratio, 10 μM, 120 min) | Compound
12 | 3.47 | 8.96 |  | O=C1Nc2ccc([C@H](O)CN3C[C@H]4C[C@H](Oc5ccccc5)C[C@@]4(O)C3)c(F)c2CO1 (single isomer, unassigned) [Example 34B]
13 | 1 | 8.92 |  | O=C1Nc2c(F)cc([C@@H](O)CN3C[C@H]4C[C@H](Oc5ccccc5F)C[C@@]4(O)C3)cc2CO1 (single isomer, unassigned) [Example 35A]
14 | 2.04 | 8.89 |  | O=C1Nc2c(F)cc([C@H](O)CN3C[C@H]4C[C@H](Oc5ccccc5F)C[C@@]4(O)C3)cc2CO1 (single isomer, unassigned) [Example 35B]
15 | 2.44 | 8.82 |  | O=C1Nc2cc(F)c([C@H](O)CN3C[C@H]4C[C@H](Oc5ccccc5)C[C@@]4(O)C3)cc2CO1 (single isomer, unassigned) [Example 36B]
16 | 1.86 | 9.52 |  | O=C1Nc2ccc([C@@H](O)CN3C[C@H]4C[C@H](Oc5ccccc5F)C[C@@]4(O)C3)cc2CO1 (single isomer, unassigned) [Example 41A]
17 | 2.44 | 9.64 |  | O=C1Nc2ccc([C@H](O)CN3C[C@H]4C[C@H](Oc5ccccc5F)C[C@@]4(O)C3)cc2CO1 (single isomer, unassigned) [Example 41B]
18 | 2.16 | 10.47 |  | O=C1CCCc2cc([C@@H](O)CN3C[C@H]4C[C@H](Oc5ccccc5F)C[C@@]4(O)C3)ccc2N1 (single isomer, unassigned) [Example 43A]
19 | 1.05 | 7.42 |  | O=C1CCc2cc([C@@H](O)CN3C[C@H]4C[C@H](Oc5ccccc5F)C[C@@]4(O)C3)ccc2N1 [Example 5A, 6-((R)-2-((3aS,5S,6aR)-5-(2-fluorophenoxy)-3a-hydroxyhexahydrocyclopenta[c]pyrrol-2(1H)-yl)-1-hydroxyethyl)-3,4-dihydroquinolin-2(1H)-one]
